In patent publication US20040106135A1, “Assay for PPAR ligand dependent gene modulation” (priority 2002, published 2004):
Like-named read-outs stand apart in the source and are kept apart here.

Legend:
[1] = test system: PDK-4 mRNA in HK-2 cells (endogenous PPARα); test: PDK-4 mRNA induction in HK-2 cells (real-time RT-PCR); type: cell-based, human; details: for EC50: 24 hours
Description: (§1) Values were normalized to 18S rRNA levels.
EC50 values were determined for PDK-4 mRNA induction by quantitative PCR under conditions used to generate the data shown in FIG. 2. EC50 values in the transactivation assays were determined by transfection of an expression plasmid encoding a GAL4-hPPARα chimera into cells co-expressing a luciferase reporter gene under the transcriptional control of GAL4 upstream activating elements.
(§2) Cell culture: The following cell lines were obtained from American Type Culture Collection (ATCC) and cultured in the recommended medium for each cell type: HepG2, HK-2, Caki-1, LNCaP (CloneFGC), SW872, and ACHN. PPARα compounds were prepared to a 500× stock in DMSO; corresponding control cells received an equal volume of vehicle (0.2% v/v).
Real-time PCR: Fluorescence-based real-time PCR was performed essentially as described (Abbaszade et al., (1999) J. Biol. Chem. 274:23443-23450). Primers and probes designed from the hamster pyruvate dehydrogenase kinase 4 (PDK4) sequence (Genbank Accession No. AF321218), human pyruvate dehydrogenase kinase 4 (PDK-4) sequence (Genbank Accession No. NM_002612) and human adipose differentiation-related protein (ADFP) sequence (Genbank Accession No. NM_001122) were synthesized and purified by Biosearch Technologies. Probes for ADFP and PDK-4 were modified at the 5′ end with the reporter dye 6-FAM, and at the 3′ end with the quencher dye Black Hole Quencher 1 (Biosearch Technologies). Probes detecting rat 18S rRNA were modified at the 5′ end with VIC and at the 3′ end with TAMRA (Biosearch Technologies). For detection of hamster PDK4, primers 5′-[…] (SEQ ID NO:2), 5′[…] (SEQ ID NO:3), and probe 5′-[…] (SEQ ID NO:4) were used. For detection of human PDK4, primers 5′-[…] (SEQ ID NO:5), 5′-[…] (SEQ ID NO:6), and probe 5′-[…] (SEQ ID NO:7) were used. For detection of human ADFP, primers 5′-[…] (SEQ ID NO:8), 5′-[…] (SEQ ID NO:9), and probe 5′-[…] (SEQ ID NO: 10) were used. For detection of 18s rRNA, primers 5′-[…] (SEQ ID NO:11), 5′-[…] (SEQ ID NO:12), and probe 5′-[…] (SEQ ID NO:13) were used. Template cDNA was generated using the Advantage RT-PCR kit according to the manufacturer's (Clontech) instructions using random hexamers and 1 μg of DNaseI-treated total RNA. Taqman-based real-time PCR expression profiling was performed using 25 ng of each cDNA according to the manufacturer's (PE Biosystems) instructions with fluorescence being monitored in real-time with an ABI Prism 7700 (PE Biosystems). Relative expression levels were determined essentially as described (Gibson et al., (1996) Genome Res. 6:995-1001) using standard curves for each transcript. Relative abundance was then determined from these standard curves, subtracting mRNA levels obtained from negative control reactions performed in the absence of reverse transcriptase, and normalized to 18S rRNA levels. All expression measurements were performed in duplicate in two independent assays, generating a total of four measurements per cDNA.

[2] = test system: ADRP mRNA in HK-2 cells (endogenous PPARα); test: ADRP mRNA induction in HK-2 cells (real-time RT-PCR); type: cell-based, human; details: 100 nM GW9578
Description: as §1, §2
(§3) Real-time PCR: Fluorescence-based real-time PCR was performed essentially as described (Abbaszade et al., (1999) J. Biol. Chem. 274:23443-23450). […] Taqman-based real-time PCR expression profiling was performed using 25 ng of each cDNA according to the manufacturer's (PE Biosystems) instructions with fluorescence being monitored in real-time with an ABI Prism 7700 (PE Biosystems). Relative expression levels were determined essentially as described (Gibson et al., (1996) Genome Res. 6:995-1001) using standard curves for each transcript. Relative abundance was then determined from these standard curves, subtracting mRNA levels obtained from negative control reactions performed in the absence of reverse transcriptase, and normalized to 18S rRNA levels. […]

[3] = test system: hamster PDK-4 mRNA in liver; test: PDK-4 mRNA induction in liver of fat-fed hamsters; type: in vivo; details: single dose (GW9578 3 mg/kg, fenofibrate 100 mg/kg, gemfibrozil 500 mg/kg), 16 hour post-treatment
Description: (§4) FIG. 4A is a bar graph depicting the induction of PDK-4 mRNA in hamster liver by PPARα ligands. […] After 16 hours, the tissues were harvested, total RNA isolated and levels of hamster PDK-4 mRNA were detected by RT-PCR. The values are normalized to 18S rRNA levels. The mean and SEM of three individual animals are shown.
(§5) PDK-4 plays a critical role in regulating glucose metabolism by phosphorylating and inactivating the pyruvate dehydrogenase complex in response to increased fatty acid oxidation. […] To investigate the response of PDK-4 to fibrate treatment in vivo, in another aspect of the present invention the fat-fed hamster model was employed, which closely mimics the serum lipid profiles of humans than other rodent models (Sullivan et al., (1993) Lab. Anim. Sci. 43:575-578). […] These doses were previously shown to yield maximal effects on blood triglycerides in hamster. […] In hamster kidney, the basal levels of PDK-4 mRNA were approximately 10-fold higher than in the liver (FIG. 4B). […] Fibrates are effective treatments for lowering serum triglyceride levels. To verify that the doses used in this study were efficacious, blood triglyceride levels were monitored over a 48 hour time course.
as §3

[4] = test system: hamster PDK-4 mRNA in kidney; test: PDK-4 mRNA induction in kidney of fat-fed hamsters; type: in vivo; details: single dose (GW9578 3 mg/kg, fenofibrate 100 mg/kg, gemfibrozil 500 mg/kg), 16 hours
Description: as §4, with “4B” for “4A”, “graphs” for “graph”, “kidney” for “liver”
as §5, §3

With `CCCCCCCN(CCc1ccc(SC(C)(C)C(=O)O)cc1)C(=O)Nc1ccc(F)cc1F` [GW9578, ureido-thioisobutyric acid] the EC50 ([1]; RT-PCR, read-out: EC50 for activation of PDK-4 in HK-2 cells) was roughly 0.01 µM, the “Time to near maximal increase of PDK-4 mRNA” value ([1]; HK-2 cells, 100 nM GW9578) was no more than 2 h and the EC50 ([1]; PDK-4 mRNA induction by quantitative PCR, normalized to 18S rRNA, read-out: EC50 (μM) in HK-2 (PDK-4)) was 0.01 µM. The “Time to near maximal increase of ADRP mRNA” value [2] was no more than 2 h, the “Induction of PDK-4 mRNA levels in the liver” value [3] was 200 fold and the “Induction of PDK-4 mRNA in kidney” value [4] was 7 fold.
